Measured values from patent US10813981B2, “Saposin B binds the lipofuscin bisretinoid A2E and prevents its enzymatic and photo degradation” (Syracuse University, priority 2017, dated 2020).
Positions count from the first letter of the chain named.

Tests used:
SapB [1] = biological target: T1, SapB (Homo sapiens, UniProt P07602); experiment: Fluorescence quenching titration of SapB with ligand (double logarithmic Stern-Volmer analysis); format: binding; conditions: 40 μM SapB, 50 mM phosphate buffer pH 5.5, average of three runs; for Kd: read-out: LogKA of binding by SapB (converted)
T1 construct: made in house; host or cells: E. coli
T1 sequence (P07602 195-273 limits assumed): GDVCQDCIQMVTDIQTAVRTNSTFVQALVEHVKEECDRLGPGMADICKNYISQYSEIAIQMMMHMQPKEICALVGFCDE
Protocol: A2E and SapB were prepared and purified according to literature reports. To determine the A2E/protein binding stoichiometry, a fluorescence titration was carried out by incrementally adding small amounts of A2E to a solution of SapB (FIG. 2). […] A double logarithmic plot of
Fluorescence quenching measurements were performed on a Varian Cary Eclipse fluorimeter equipped with a QNW Peltier temperature controller. The experiments were conducted at 25.00±0.01° C. in 50 mM phosphate buffer, pH 5.50 or 7.40 using 278 nm excitation wavelength for sapB emission spectra at 325 nm (FIG. 2) or 444 nm excitation for A2E emission at 602 nm (FIG. 3) with excitation and emission monochromators bandwidth of 5 nm each. The fluorescence quenching data were analyzed using OriginLab software version 8.
The interaction of SapB (prepared as described above) with a variety of ligands was followed by monitoring the quenching of the fluorescence intensities of the protein's tyrosine residues upon binding (FIG. 12 Panels a-f).
For each ligand tested 40 μM SapB in 50 mM phosphate buffer at pH 5.5 was titrated with ligand and quenching was monitored at the fluorescence maxima at 330 nm. […] All of the fluorescence data were analyzed by a double logarithmic Stern-Volmer plot, shown for all ligands, using the emission maxima to determine binding affinity, presented in Table 3, and using the following equation
Materials and Methods—Saposin B (SapB) was prepared and purified as described above. Briefly, SapB solutions in this study were prepared in 50 mM phosphate buffer, pH 5.5. […] Ligand solutions were prepared in 100% dimethylformamide (DMF) to a concentration of 2 mM, with the exception of hydoxychloroquine (HCQ), which was prepared in 50 mM phosphate buffer, pH 5.5. […] 4.2. Fluorescence Spectroscopy. Fluorescence quenching measurements were performed on a Varian Cary Eclipse fluorimeter equipped with a QNW Peltier temperature controller. The binding experiments were conducted at 25.00±0.01° C. in 50 mM phosphate buffer, pH 5.5, using 278 nm excitation wavelength for SapB emission spectra at 330 nm (FIG. 1a-f) with excitation and emission monochromators bandwidth of 5 nm each. Temperature sensitive binding experiments were performed between 20.00±0.01 and 40.00±0.01° C. using 278 nm excitation wavelength for SapB emission spectra at 331 nm, with excitation and emission monochromators bandwidth of 5 nm each. The fluorescence quenching data were analyzed using OriginLab software version 8.

SapB [2] = biological target: T1, SapB; experiment: Temperature dependent fluorescence binding assay, SapB with ATO; conditions: 25° C.; read-out: KA at 25° C., SapB-ATO
Protocol: Isothermal titration calorimetry has shown that [SapB-ATO]complex formation has a larger enthalpic contribution than [SapB-CQ]complex and [SapB-CoQ10]complex. Thus, the shift in binding affinity between [SapB-ATO]complex and [[…]-ATO]complex binding may be due to a shift in the thermodynamics of binding. In order to test this, temperature dependent fluorescence studies were performed with […] and ATO, as well as with SapB and ATO. Fluorescence titration experiments were carried out at five different temperatures for each of the […]-ATO and SapB-ATO experiments (FIG. 14). At each temperature, protein was prepared in phosphate buffer solution and ATO was then added via titration. The quenching of SapB or […] fluorescence was monitored at 330 nm and the KA was calculated via double logarithmic Stern-Volmer analysis. The best-fit plot of InKeq vs. 1/T, where was used to calculate the standard enthalpy, entropy, and Gibb's Free energy of binding for the formation of [[…]-ATO]complex and Materials and Methods-Saposin B (SapB) was prepared and purified as described above. […] Fluorescence Spectroscopy. Fluorescence quenching measurements were performed on a Varian Cary Eclipse fluorimeter equipped with a QNW Peltier temperature controller. […] The fluorescence quenching data were analyzed using OriginLab software version 8.

SapB mutant E69A = biological target: T2, SapB mutant E69A (Homo sapiens, UniProt P07602, E263A); experiment: Fluorescence binding assay (Stern-Volmer and temperature dependent), E69A with ATO; conditions: 25° C.; read-out: KA at 25° C., E69A-ATO
T2 construct: is a product of the post-translational cleavage of prosaposin, along with SapA, SapC, and SapD
T2 sequence (P07602 195-273 E263A): T1 sequence (P07602 195-273 limits assumed) with E69A
Protocol: The deviation observed for [SapB-ATO]complex from the trend warranted further investigation. In order to examine this deviation, a previously described SapB mutant […] (denoted as […] from here on) was used. Fluorescence studies were performed with […] and ATO as described herein for wild type SapB. […] Isothermal titration calorimetry has shown that [SapB-ATO]complex formation has a larger enthalpic contribution than [SapB-CQ]complex and [SapB-CoQ10]complex. Thus, the shift in binding affinity between [SapB-ATO]complex and [[…]-ATO]complex binding may be due to a shift in the thermodynamics of binding. In order to test this, temperature dependent fluorescence studies were performed with […] and ATO, as well as with SapB and ATO. Fluorescence titration experiments were carried out at five different temperatures for each of the […]-ATO and SapB-ATO experiments (FIG. 14). At each temperature, protein was prepared in phosphate buffer solution and ATO was then added via titration. The quenching of SapB or […] fluorescence was monitored at 330 nm and the KA was calculated via double logarithmic Stern-Volmer analysis. […] Fluorescence Spectroscopy. Fluorescence quenching measurements were performed on a Varian Cary Eclipse fluorimeter equipped with a QNW Peltier temperature controller. […] The fluorescence quenching data were analyzed using OriginLab software version 8.

[3] = biological target: T3, pre-formed [SapB-Ligand]complex (Homo sapiens, UniProt P07602); experiment: Competition / order of addition fluorescence binding with pre-formed SapB complexes; conditions: A2E fluorescence at 602 nm, excitation 444 nm, pH 5.5
T3 construct: is a product of the post-translational cleavage of prosaposin, along with SapA, SapC, and SapD; made in house; host or cells: E. coli
T3 sequence (P07602 195-273 limits assumed): T1 sequence (P07602 195-273 limits assumed)
Protocol: We have reported in an earlier study the binding properties of SapB to CoQ10 (a bone fide substrate). To determine whether it binds to the same binding site on the protein or displaces A2E from SapB, a series of fluorescence titration experiments in the presence and absence of CoQ10 were performed.
An 800 μL, 20 μM SapB to 10 μM CoQ10 complex was made in pH 5.5 50 mM phosphate buffer. The complex was formed at room temperature in a 1 mL glass vial with gentle stirring for 10 minutes. The entire solution was then transferred to a clear fluorescence cuvette. Fluorescence experiments were performed under emission conditions on a Cary Eclipse Fluorescence Spectrophotometer, with an excitation wavelength of 444 nm, emission wavelength range of 500-800 nm, excitation slit width set to 10 nm, and emission slit width set to 10 nm. […] Analysis of A2E binding the SapB-CoQ10 complex was performed by tracking fluorescence intensity at A2E's peak emission wavelength of 602 nm and plotting it against the concentration of A2E added per each injection.
A SapB-ATO complex was formed by adding 20 μL of the experimental stock to 1 mL of the SapB experimental stock for a final volume of 1020 μL in a 1.5 mL Eppendorf tube. […] The entire 1020 μL was then transferred to a clear fluorescence cuvette. […]

Row | Kd (SapB [1]) [µM] | LogKA of binding by SapB (SapB [1]) | Compound | further results
1 | 0.0288 |  | O=C1C(O)=C([C@H]2CC[C@H](c3ccc(Cl)cc3)CC2)C(=O)c2ccccc21 [Atovaquone, atovaquone] | Kd (SapB [2]): 0.112 µM; Kd (SapB mutant E69A): 58.5 µM
2 |  | 5.103 | COC1=C(OC)C(=O)C(C/C=C(\C)CC/C=C(\C)CC/C=C(\C)CCC=C(C)C)=C(C)C1=O [Coenzyme Q4] | 
3 |  | 6.196 | COC1=C(OC)C(=O)C(C/C=C(\C)CC/C=C(\C)CC/C=C(\C)CC/C=C(\C)CC/C=C(\C)CC/C=C(\C)CC/C=C(\C)CC/C=C(\C)CCC=C(C)C)=C(C)C1=O [Coenzyme Q9] | 
4 |  | 6.075 | phosphatidyl-choline [Phosphatidylcholine] | 
5 | 155 |  | CCN(CCO)CCCC(C)Nc1ccnc2cc(Cl)ccc12 (stereo not drawn) [Hydoxychloroquine, hydroxychloroquine] | 
6 | 70.1 |  | CCN(CC)CCCC(C)Nc1ccnc2cc(Cl)ccc12 (stereo not drawn) [Chloroquine, chloroquine] | 
7 |  | 4.618 | CC1=C(/C=C/C(C)=C/C=C/C(C)=C/C=C/C=C(C)/C=C/C=C(\C)C=O)C(C)(C)CCC1 [Apocarotenal, apo-carotenal] | 
8 |  | 5.227 | phosphatidylethanolamine | 
9 | 0.0631 |  | COC1=C(OC)C(=O)C(C/C=C(\C)CC/C=C(\C)CC/C=C(\C)CC/C=C(\C)CC/C=C(\C)CC/C=C(\C)CC/C=C(\C)CC/C=C(\C)CC/C=C(\C)CCC=C(C)C)=C(C)C1=O [Coenzyme Q10, coenzyme Q10] | A2E binding on titration into SapB pre-complexed with the ligand [3]: identical fluorescence titration pattern
